Experiment: xn = mol fraction of the nth substance listed
Settings: 92 kPa, Liquid; for mass density: Vibrating tube method

CC(C)(N)CO [2-amino-2-methylpropan-1-ol] + O
Settings | mass density [kg/m3] | viscosity [mPa·s]
298.15 K, x1 = 0.0503 | 996.94 | 2.32
298.15 K, x1 = 0.0704 | 997.22 | 3.23
298.15 K, x1 = 0.1005 | 997.05 | 5.01
298.15 K, x1 = 0.2006 | 989.06 | 14.82
298.15 K, x1 = 0.2939 | 978.77 | 22.7
298.15 K, x1 = 0.4075 | 967.43 | 51.5
298.15 K, x1 = 0.4982 | 959.61 | 76.8
298.15 K, x1 = 0.5996 | 952.01 | 102.5
298.15 K, x1 = 0.7028 | 945.34 | 124.3
298.15 K, x1 = 0.8016 | 939.53 | 140.7
298.15 K, x1 = 0.9001 | 934.8 | 149.1
303.15 K, x1 = 0.0503 | 994.7 | 1.98
303.15 K, x1 = 0.0704 | 994.6 | 2.67
303.15 K, x1 = 0.1005 | 993.88 | 4.05
303.15 K, x1 = 0.2006 | 985.15 | 11.32
303.15 K, x1 = 0.2939 | 974.76 | 16.96
303.15 K, x1 = 0.4075 | 963.43 | 36.9
303.15 K, x1 = 0.4982 | 955.61 | 54.3
303.15 K, x1 = 0.5996 | 948 | 70.3
303.15 K, x1 = 0.7028 | 941.38 | 84
303.15 K, x1 = 0.8016 | 935.53 | 94
303.15 K, x1 = 0.9001 | 930.7 | 98.9
313.15 K, x1 = 0.0503 | 989.66 | 1.608
313.15 K, x1 = 0.0704 | 988.95 | 1.931
313.15 K, x1 = 0.1005 | 987.5 | 2.79
313.15 K, x1 = 0.2006 | 977.24 | 7
313.15 K, x1 = 0.2939 | 966.67 | 12.51
313.15 K, x1 = 0.4075 | 955.29 | 20.37
313.15 K, x1 = 0.4982 | 947.43 | 28.7
313.15 K, x1 = 0.5996 | 939.82 | 36.1
313.15 K, x1 = 0.7028 | 933.1 | 42.5
313.15 K, x1 = 0.8016 | 927.27 | 46.2
313.15 K, x1 = 0.9001 | 923.35 | 47.9
313.15 K, x1 = 1 | 919.65 | 47.8
323.15 K, x1 = 0.0503 | 984.18 | 1.244
323.15 K, x1 = 0.0704 | 982.83 | 1.466
323.15 K, x1 = 0.1005 | 980.6 | 2.03
323.15 K, x1 = 0.2006 | 969.17 | 4.66
323.15 K, x1 = 0.2939 | 958.38 | 7.85
323.15 K, x1 = 0.4075 | 946.98 | 12.17
323.15 K, x1 = 0.4982 | 939.08 | 16.26
323.15 K, x1 = 0.5996 | 931.58 | 20
323.15 K, x1 = 0.7028 | 924.7 | 22.7
323.15 K, x1 = 0.8016 | 918.85 | 24.6
323.15 K, x1 = 0.9001 | 914.78 | 25.3
323.15 K, x1 = 1 | 911.24 | 25.1
333.15 K, x1 = 0.0503 | 978.15 | 0.931
333.15 K, x1 = 0.0704 | 976.26 | 1.154
333.15 K, x1 = 0.1005 | 973.43 | 1.55
333.15 K, x1 = 0.2006 | 960.92 | 3.27
333.15 K, x1 = 0.2939 | 949.92 | 5.23
333.15 K, x1 = 0.4075 | 938.48 | 7.63
333.15 K, x1 = 0.4982 | 930.56 | 10
333.15 K, x1 = 0.5996 | 923.08 | 11.97
333.15 K, x1 = 0.7028 | 915.97 | 13.33
333.15 K, x1 = 0.8016 | 910.36 | 14.22
333.15 K, x1 = 0.9001 | 906.31 | 14.53
333.15 K, x1 = 1 | 902.87 | 14.4
343.15 K, x1 = 0.0503 | 971.66 | 0.826
343.15 K, x1 = 0.0704 | 969.29 | 0.933
343.15 K, x1 = 0.1005 | 965.83 | 1.21
343.15 K, x1 = 0.2006 | 952.44 | 2.4
343.15 K, x1 = 0.2939 | 941.28 | 3.67
343.15 K, x1 = 0.4075 | 930 | 4.94
343.15 K, x1 = 0.4982 | 921.85 | 6.43
343.15 K, x1 = 0.5996 | 914.39 | 7.5
343.15 K, x1 = 0.7028 | 907 | 8.23
343.15 K, x1 = 0.8016 | 901.65 | 8.88
343.15 K, x1 = 0.9001 | 897.77 | 8.98
343.15 K, x1 = 1 | 894.28 | 8.91

From the NIST ThermoML archive (doi:10.1021/je0201119)
